The term Papp A→B denotes how fast a substance crosses the layer from the apical side. A lower Papp A→B goes with poor permeation. As a reminder, the Papp is the rate of passage across a membrane or cell layer, normalised by area and donor concentration. A higher Papp goes with ready permeation.

For series [1] the following is noted: fraction absorbed in humans, reported in the literature; cited from earlier work.
In series [2] the test system is Caco-2 monolayer. As to conditions: cited from earlier work.
Series [3] relates to Caco-2 monolayer. The series can be described thus: in vitro. The procedure: (§1) A method of using the medium also is part of the present invention. The following description is representative of how this would be done. Caco-2 cells (available from ATCC, Manassas, Va.) are resuspended in the HTB-10 medium and seeded on 3 μm polycarbonate 6-well Transwell® cell culture inserts (diameter 24.5 mm, Corning Costar) at a density of about 0.2×10^6 cells/cm^2. The seeding of the cells was performed on dry filters by placing 1.5 mL of the cell suspension on the apical side first, followed by addition of 2.5 mL of HTB-10 medium to the baso-lateral side.
(§2) To induce cell polarity, the volume of the medium on the apical side was decreased from 1.5 ml to 0.5 mL 48 hours post seeding, and the cells were fed primarily from the baso-lateral side. After the switch, the medium was changed every 24 hr for a total incubation period of 4 days.
(§3) The differentiation status and the monolayer integrity were monitored by measurements of transepithelial electrical resistance (TEER) and by determination of permeability of mannitol. […] The accelerated Caco-2 system was also evaluated through a validation process that was based on FDA guidelines for the Biopharmaceuticals Classification System (BCS). In that process, Caco-2 cell permeability coefficients were determined for 26 structurally diverse compounds that were then rank-ordered according to the fraction absorbed in humans. The transport studies were conducted as follows. The donor solution of the drug was placed on the apical side of a sample filter (1.5 mL) and the buffer solution (HBSS, pH 7.4) was placed on the baso-lateral side (2.5 mL). The plates were incubated at 37° C. on a shaker for 1-3 hr. Samples were collected at the designated time points and analyzed by either HPLC (uv)or radiometry (for radioactive compounds).

The nature of another series: in vitro. Particulars: human; for Papp A→B: Caco-2, pH 7.4. The procedure: as §1, §2, §3
Where [4] appears, read: BCS validation set, compounds rank-ordered according to fraction absorbed in humans.

Read-outs that look alike come from different tables or passages of the source. Marks after values point to notes of the source that are not given here.

Take `COc1ccc2cc([C@H](C)C(=O)O)ccc2c1` [Naproxen]: the “% fa in humans” value in series [1] is 94-100%.

On to `NS(=O)(=O)c1cc(C(=O)O)c(NCc2ccco2)cc1Cl` [Furosemide], for which the “% fa in humans” value in series [1] is on record as 61%.

In the case of `C[C@](N)(Cc1ccc(O)c(O)c1)C(=O)O` [L-alpha-methyldopa], in the series on Caco-2 monolayer [2] (Caco-2), the Permeability class result was “Low”. In addition, the “% fa in humans” value in series [1] is 44** %. For the same molecule, the “[PM × 10^−6] cm/sec” value in the series with Caco-2 monolayer [3] (human, Caco-2, pH 7.4) was 5.7 +/− 0.5 × 10^−6 cm/sec.

`CC(C)NCC(O)COc1cccc2ccccc12` (stereo not drawn) [Propranolol]: in the series with Caco-2 monolayer [2] (setting [4]), the Permeability class entry is on record as “High”. Moreover, the Papp A→B in “in vitro” amounted to 19.3 ×10⁻⁶ cm/s.

As for `NC(N)=Nc1nc(CSCCC(N)=NS(N)(=O)=O)cs1` [Famotidine], in the series with Caco-2 monolayer [2] (setting [4]), the Permeability class result was “Low”. In addition, in series [1], the “% fa in humans” value was 38%. This molecule also yielded a Papp A→B in the series “in vitro” of 1.36 ×10⁻⁶ cm/s.

As for `COCCc1ccc(OCC(O)CNC(C)C)cc1` (stereo not drawn) [Metoprolol], the Permeability class entry in the series with Caco-2 monolayer [2] (setting [4]) was “High”. The molecule also had a Papp A→B in “in vitro” of 43.6 ×10⁻⁶ cm/s.

As for PEG-4000, the “[PM × 10^−6] cm/sec” value with Caco-2 monolayer [3] (Caco-2, pH 7.4) is reported as 0.6 +/− 0.1 × 10^−6 cm/sec.

For `Cn1c(=O)c2[nH]cnc2n(C)c1=O` [Theophylline], in series [1], the “% fa in humans” value is 96%.

With `CC(C)(C)NCC(O)c1cc(O)cc(O)c1` (stereo not drawn) [Terbutalin], the Permeability class entry with Caco-2 monolayer [2] (setting [4]) was “Medium”. Also, the “% fa in humans” value in series [1] is 50-73%. In the series “in vitro”, this molecule had a Papp A→B of 5.54 ×10⁻⁶ cm/s.

For the molecule `CC1(C)S[C@@H]2[C@H](NC(=O)[C@H](N)c3ccc(O)cc3)C(=O)N2[C@H]1C(=O)O` [Amoxicillin], the Permeability class result in the series with Caco-2 monolayer [2] (setting [4]) was “Low”. For the same molecule, in series [1], the “% fa in humans” value is 94** %. Besides, the apparent permeability from apical to basolateral (Papp A→B) in “in vitro” was 0.02 ×10⁻⁶ cm/s.

On to `CNC(=C[N+](=O)[O-])NCCSCc1ccc(CN(C)C)o1` [Ranitidine], for which the Permeability class entry in the series with Caco-2 monolayer [2] (setting [4]) is “Medium”. Besides, the “% fa in humans” value in series [1] is on record as 50-61%. Besides, in the series “in vitro”, the Papp A→B was 2.2 ×10⁻⁶ cm/s.

Turning to PEG-900, in the series with Caco-2 monolayer [3] (Caco-2, pH 7.4), the “[PM × 10^−6] cm/sec” value is recorded as 0.7 +/− 0.1 × 10^−6 cm/sec.

As for `OC[C@@H](O)[C@@H](O)[C@H](O)[C@H](O)CO` [Mannitol], the Permeability class result with Caco-2 monolayer [2] (setting [4]) is “Low”. Moreover, the “% fa in humans” value in series [1] is reported as 16-26%. In the series “in vitro” (Caco-2), this molecule had a Papp of 0.7 to 6.3 ×10⁻⁶ cm/s. The Papp A→B in the series “in vitro” turned out to be 3 ×10⁻⁶ cm/s.

Regarding `NS(=O)(=O)c1cc2c(cc1Cl)NCNS2(=O)=O` [Hydrochlorthiazide], the “% fa in humans” value in series [1] is 65-72%. Besides, in the series “in vitro”, the Papp A→B is 6.9 ×10⁻⁶ cm/s.

On to `C[C@]12CC[C@H]3[C@@H](CCC4=CC(=O)CC[C@@]43C)[C@@H]1CC[C@@H]2O` [Testosterone], for which the “% fa in humans” value in series [1] was 100%.

As for `CN(Cc1cnc2nc(N)nc(N)c2n1)c1ccc(C(=O)N[C@@H](CCC(=O)O)C(=O)O)cc1` [Methotraxate], the Permeability class entry with Caco-2 monolayer [2] (setting [4]) is recorded as “Low”. Further, the “% fa in humans” value in series [1] is listed as 20-100** %. Besides, the “[PM × 10^−6] cm/sec” value with Caco-2 monolayer [3] (4-day Caco-2 in HTB-10, donor apical, HBSS pH 7.4, 37° C., 1-3 hr, donor concentration per Table 1) is reported as 4.2 +/− 0.7 × 10^−6 cm/sec.

In the case of PEG-400, the “[PM × 10^−6] cm/sec” value in the series on Caco-2 monolayer [3] (Caco-2, pH 7.4) was 1.1 +/− 0.1 × 10^−6 cm/sec.

For `CC(C)(C)NC[C@H](O)COc1nsnc1N1CCOCC1` [Timolol], the Permeability class entry in the series with Caco-2 monolayer [2] (setting [4]) is reported as “Medium”. The “% fa in humans” value in series [1] is 72-75%. Besides, the Papp A→B in “in vitro” is 25.4 ×10⁻⁶ cm/s.

Regarding `CC(C)n1c(/C=C/C(O)CC(O)CC(=O)O)c(-c2ccc(F)cc2)c2ccccc21` (stereo not drawn) [Fluvastatin], the Permeability class entry with Caco-2 monolayer [2] (setting [4]) is “High”. In “in vitro”, this molecule gave a Papp A→B of 10.8 ×10⁻⁶ cm/s.

With `CC(C(=O)O)c1cccc(C(=O)c2ccccc2)c1` (stereo not drawn) [Ketoprofen], in the series with Caco-2 monolayer [2] (setting [4]), the Permeability class entry was “High”. The Papp A→B in “in vitro” was 48.6 ×10⁻⁶ cm/s.

As to `Nc1nc2c(ncn2COCCO)c(=O)[nH]1` [Acyclovir], the Papp A→B in the series “in vitro” turned out to be 3.8 ×10⁻⁶ cm/s.

For `Cc1cc(=O)n(-c2ccccc2)n1C` [Antipyrine], the “% fa in humans” value in series [1] is 97-100%.

Regarding `NC(=O)N1c2ccccc2C=Cc2ccccc21` [Carbamazepine], in the series with Caco-2 monolayer [2] (setting [4]), the Permeability class entry was “High”. For the same molecule, in series [1], the “% fa in humans” value is listed as 100%. This molecule also displayed a Papp A→B in the series “in vitro” of 84.6 ×10⁻⁶ cm/s.

As for `CC(C)NCC(O)COc1ccc(CC(N)=O)cc1` (stereo not drawn) [Atenolol], the “% fa in humans” value in series [1] is given as 50-54%.

Values taken from US7300794B2, “Accelerated culture system for intestinal epithelial cell monolayers” (Supernus Pharmaceuticals, Inc., priority 2003, dated 2007).
